The target in test [1] is T1, Kinase insert Domain containing Receptor (KDR: the catalytic domain of the VEGF receptor) (Homo sapiens, UniProt P35968).
T1 construct: KDR: the catalytic domain of the VEGF receptor
Kind of test: Inhibition of Kinase insert Domain containing Receptor (KDR).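 Further: KDR phosphorylating a Glu:Tyr 4:1 copolymer with P32- or P33-labelled ATP, Mg++ and vanadate, read as acid-insoluble radiolabel, compared with compound-free reaction.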 Format: biochemical.

For test [2], the system named is SW620. As to the kind of experiment: Inhibition of cancer cell growth as measured by cell number, SW620.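 On all read-outs here: SW620 was included as a cell line with little or no EGFR or HER2/neu expression, in contrast to receptor-overexpressing lines.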 Type of test: cell-based, human. The following applies: Table 8; for IC50: Homo sapiens, SW-620, 48 h.
Description: (§1) The cell lines were chosen since they overexpressed epidermal growth factor receptor (EGFR) (i.e. A431) or HER2/neu (SKBR3), or had little to no expression of the these receptors (SW620, LOX, MCF7).
Test [3] deals with SKBR3. Kind of test: Inhibition of cancer cell growth as measured by cell number, SKBR3.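 On all read-outs here: SK-BR-3 cells were selected as a line overexpressing HER2/neu.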 Type of test: cell-based, human. The following applies: Table 8; for IC50: Homo sapiens.
Description: as §1
The target of test [4] is recombinant human MEK 1 (MAPKK) and recombinant human ERK2 (MAPK). As to the kind of experiment: Mitogen Activated Protein Kinase (MAPK) assay, two component coupled MEK 1 / ERK2.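 Further: MEK 1-activated ERK2 phosphorylates MBP or Myc peptide with 33P-ATP, filter capture and scintillation counting, inhibitor preincubated with ERK2 30 min at 0 °C, inhibition relative to uninhibited control.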 The following applies: separate entries for the same compound = evaluated more than one time. Format: biochemical.
Protocol: To evaluate inhibitors of the MAP (mitogen activated protein) kinase a two component coupled standard pharmacological test procedure, which measures phosphorylation of a serine/threonine residue in an appropriate sequence in the substrate in the presence and absence of a putative inhibitor, was used. Recombinant human MEK 1 (MAPKK) was first used to activate recombinant human ERK2 (MAPK) and the activated MAPK (ERK) was incubated with substrate (MBP peptide or MYC peptide) in the presence of ATP, Mg^+2 and radiolabeled ^33P ATP. The phosphorylated peptide was captured on a P 81 phosphocellulose filter (paper filter or embedded in microtiter plate) washed and counted by scintillation methods.
The peptide substrates used in the assay are MBP, peptide substrate ([sequence]), or synthetic Myc substrate, ([sequence]•5 TFA. The recombinant enzymes used were prepared as GST fusion proteins of human ERK 2 and human MEK 1. Inhibitor samples were prepared as 10X stocks in 10% DMSO and an appropriate aliquot was used to deliver either 10 ug/ml for a single point screening dose or 100, 10, 1, and 0.1 uM final concentration for a dose response curve. Final DMSO concentrations were less than or equal to 1%.
The reaction was run as follows in 50 mM Tris kinase buffer, pH 7.4 in a reaction volume of 50 ul. The appropriate volume of kinase buffer and inhibitor sample was added to the tube. Appropriate dilution of enzyme was delivered to give 2-5 ug recombinant MAPK (Erk ) per tube. The inhibitor was incubated with MAPK (Erk) for 30 min at 0 deg. […] Recombinant Mek (MAPKK) ( 0.5-2.5 ug) or fully activated Mek (0.05-0.1 units) was added to activate the Erk and incubated for 30 min at 30° C. […] Samples were incubated at 30°C for 30 minutes and the reaction was stopped by adding 25 µl of ice cold 10 %TCA .After samples were chilled on ice for 30 min, 20 µl of sample was transferred onto P 81 phosphocellulose filter paper or appropriate MTP with embedded P 81 filter. Filter papers or MTP were washed 2 times with a large volume of 1% acetic acid, then 2 times with water. The filters or MTP were briefly air dried before addition of scintillant and samples were counted in the appropriate scintillation counter set up for reading ^33P isotope.
The raw data was captured as cpm. Sample replicates were averaged and corrected for background count. Mean cpm data was tabulated by group and % inhibition by a test compound was calculated as (corrected cpm control- corrected. cpm sample/control) X 100 = % inhibition.
Test [5] deals with A431. As to the kind of experiment: Inhibition of cancer cell growth as measured by cell number, A431.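 Further: human A431 line, picked because it overexpresses epidermal growth factor receptor (EGFR).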 The following applies: Homo sapiens, A-431, 48 h, cell number, Sulforhodamine B, 48 hours exposure; Table 8; read-out: IC50 A431. Type of test: cell-based, human.
Description: as §1
Test [6] has as its target T2, His-tagged cytoplasmic domain of EGFR (Homo sapiens, UniProt P00533).
T2 construct: containing the EGFR cDNA encoding amino acids 645 - 1186 preceded by Met-Ala-(His)6; made in house; host or cells: Sf9 cells, recombinant baculovirus vHcEGFR52
Kind of test: Inhibition of Epidermal Growth Factor Receptor Kinase (EGF-R) using recombinant enzyme.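 Further: radiometric kinase assay measuring radiolabeled phosphate transfer from ATP onto the peptide tyrosine by scintillation counting, control is reaction without compound, background subtracted, IC50 from dose-response curve.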 Type of test: biochemical. The following applies: recombinant enzyme; RR-SRC peptide; average of the number of tests; read-out: IC50.

Test [7] deals with MCF7. As to the kind of experiment: Inhibition of cancer cell growth as measured by cell number, MCF7.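 Further: MCF7 was included as a line with little or no EGFR or HER2/neu expression, in contrast to the receptor-overexpressing lines of the panel.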 Format: cell-based, human. The following applies: Homo sapiens, MCF7, 48 h, cell number, Sulforhodamine B, 48 hours exposure; Table 8; read-out: IC50 MCF7.
Description: as §1
For test [8], the system named is LOX. Kind of test: Inhibition of cancer cell growth as measured by cell number, LOX.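 Further: LOX cells served as a line with low or absent EGFR and HER2/neu expression, in contrast to receptor-overexpressing lines.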 Format: cell-based, human. The following applies: Homo sapiens, LOX, 48 h, cell number, Sulforhodamine B, 48 hours exposure; Table 8; read-out: IC50 LOX.
Description: as §1
[9] abbreviates: pH 7.2, radioactive format, read-out: KDR IC50 (converted).
The mark [10] stands for this setting: cell number, Sulforhodamine B, 48 hours exposure.
The mark [11] stands for this setting: cell number, Sulforhodamine B, 48 hours exposure, read-out: IC50 SW620.
[12] abbreviates: SK-BR-3, cell number, Sulforhodamine B, 48 hours exposure, read-out: IC50 SKBR3.

Converted amounts (≈) assume the structure as drawn. “And” between values parts separate entries of the source, which are not always exact repeats. Equal values may be shown once. Read-outs that look alike come from different tables or passages of the source. Some results are limits rather than exact numbers.

T1 sequence (P35968 834-1162 limits assumed): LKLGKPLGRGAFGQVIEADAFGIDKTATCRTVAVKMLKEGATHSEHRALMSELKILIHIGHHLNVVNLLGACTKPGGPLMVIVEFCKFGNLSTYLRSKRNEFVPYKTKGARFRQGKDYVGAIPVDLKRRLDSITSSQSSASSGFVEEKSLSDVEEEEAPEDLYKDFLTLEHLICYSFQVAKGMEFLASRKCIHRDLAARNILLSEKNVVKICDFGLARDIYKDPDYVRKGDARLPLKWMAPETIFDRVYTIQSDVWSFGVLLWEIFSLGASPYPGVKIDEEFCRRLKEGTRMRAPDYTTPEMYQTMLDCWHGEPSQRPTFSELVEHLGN
T2 sequence (P00533 669-1210): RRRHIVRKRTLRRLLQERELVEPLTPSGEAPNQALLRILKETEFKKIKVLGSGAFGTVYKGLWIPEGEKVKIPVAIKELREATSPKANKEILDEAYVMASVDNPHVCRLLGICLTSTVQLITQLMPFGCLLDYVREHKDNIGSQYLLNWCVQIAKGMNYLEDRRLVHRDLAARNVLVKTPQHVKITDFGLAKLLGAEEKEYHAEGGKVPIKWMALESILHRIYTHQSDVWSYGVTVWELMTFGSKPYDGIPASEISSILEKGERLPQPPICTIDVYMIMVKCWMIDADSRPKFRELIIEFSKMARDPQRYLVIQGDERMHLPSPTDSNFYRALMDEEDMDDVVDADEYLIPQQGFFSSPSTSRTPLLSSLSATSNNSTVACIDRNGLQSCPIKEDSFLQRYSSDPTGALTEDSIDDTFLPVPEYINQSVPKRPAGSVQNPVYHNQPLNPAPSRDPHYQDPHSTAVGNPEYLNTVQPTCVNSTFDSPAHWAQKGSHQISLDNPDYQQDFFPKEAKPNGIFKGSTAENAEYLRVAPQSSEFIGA

As for `COc1cc2c(Nc3cc(O)c(Cl)cc3F)c(C#N)cnc2cc1OCCN1CCOCC1` [Example 87, 4-(4-Chloro-2-fluoro-5-hydroxy-phenylamino)-6-methoxy-7-(2-morpholin-4-yl-ethoxy)-quinoline-3-carbonitrile], the IC50 in test [1] (setting [9]) is 6.34 µM.

For `CCOc1cc2ncc(C#N)c(Nc3cccc(Br)c3)c2cc1NC(=O)C=CCN1CCOCC1` [Example 218, 4-Morpholin-4-yl-but-2-enoic acid [4-(3-bromo-phenylamino)-3-cyano-7-ethoxy-quinolin-6-yl]-amide], the IC50 is 1.85 µg/mL (≈ 3.46 µM) in test [2] (read-out: IC50 SW620, cell number, Sulforhodamine B, 48 hours exposure); 0.029 µg/mL (≈ 0.0541 µM) in test [3] (SK-BR-3, 48 h, read-out: IC50 SKBR3, cell number, Sulforhodamine B, 48 hours exposure); more than 55.9 µM in test [1] (setting [9]). Further, the “IC50 SW620” value in test [2] (setting [10]) turned out to be 1.235 µg/mL (≈ 2.3 µM). The “IC50 SKBR3” value in test [3] (setting [10]) came out at 0.047 µg/mL (≈ 0.0876 µM).

As for `COc1cc2c(Nc3ccc(C)c(O)c3)c(C#N)cnc2c(OC)c1OC` [Example 233, 4-(3-Hydroxy-4-methyl-phenylamino)-6,7,8-trimethoxy-quinoline-3-carbonitrile], the IC50 in test [1] (setting [9]) is more than 82.1 µM; in test [4] it was 80 µM.

Consider `COc1cc2ncc(C#N)c(Nc3ccc(O)c(Cl)c3)c2cc1OC` [Example 249, 4-(3-Chloro-4-hydroxy-phenylamino)-6,7-dimethoxy-quinoline-3-carbonitrile], for which the half-inhibitory concentration (IC50) is more than 28.1 µM in test [1] (setting [9]) and 15 µM in test [4].

Turning to `COc1cc2ncc(C#N)c(Nc3ccc(Cl)cc3F)c2cc1OCCCN1CCOCC1` [Example 127], the half-maximal inhibitory concentration (IC50) in test [1] is 21.2 µM; in test [4], 6 µM.

Consider `COc1cc2ncc(C#N)c(Nc3cc(C)ccc3O)c2cc1OC` [Example 295, 4-(2-Hydroxy-5-methyl-phenylamino)-6,7-dimethoxy-quinoline-3-carbonitrile], for which the concentration for half-maximal inhibition (IC50) was 29.8 µM in test [1] (setting [9]) and 50 µM in test [4].

In the case of “4-(4-Chloro-2-fluoro-phenylamino)-5,8-dimethoxy-quinoline-3-carbonitrile [Example 238]”, in test [1] (pH 7.2, radioactive format), the “KDR IC50” value is listed as more than 30 µg/mL. Moreover, the half-maximal inhibitory concentration (IC50) in test [4] was more than 100 µM.

Consider `COc1cc2ncc(C#N)c(Nc3ccc(C)c(O)c3)c2cc1OC` [Example 229, 4-(3-Hydroxy-4-methyl-phenylamino)-6,7-dimethoxy-quinoline-3-carbonitrile], for which the half-maximal inhibitory concentration (IC50) in test [2] (setting [11]) is more than 5 µg/mL; in test [5] it was 0.469 µg/mL (≈ 1.4 µM); in test [3] (setting [12]) it was more than 5 µg/mL; in test [1] (setting [9]), 0.596 µM; in test [4], less than 1 µM.

In the case of `COc1cc2c(Nc3cccc(N(C)C)c3)c(C#N)cnc2c(OC)c1OC` [Example 232, 4-(3-Dimethylamino-phenylamino)-6.7.8-trimethoxy-quinoline-3-carbonitrile], the half-maximal inhibitory concentration (IC50) in test [1] (setting [9]) was more than 79.3 µM.

On to `COc1cc2ncc(C#N)c(Nc3ccccc3SC)c2cc1OC` [Example 250, 6,7-Dimethoxy-4-(2-methylsulfanyl-phenylamino)-quinoline-3-carbonitrile], for which the IC50 is more than 28.5 µM in test [1] (setting [9]) and 10 µM in test [4].

On to `COc1cc2c(Nc3cc(O)c(Cl)cc3F)c(C#N)cnc2cc1OCCN(C)C` [Example 86, 4-(4-Chloro-2-fluoro-5-hydroxy-phenylamino)-7-(2-dimethylamino-ethoxy)-6-methoxy-quinoline-3-carbonitrile], for which the half-inhibitory concentration (IC50) in test [1] (setting [9]) was 6.96 µM; in test [4], 1.8 µM and 2 µM.

Take `COc1ccc(Nc2c(C#N)cnc3c(OC)cccc23)cc1O` [Example 279, 4-(3-Hydroxy-4-methoxy-phenylamino)-8-methoxy-quinoline-3-carbonitrile]: the IC50 is more than 93.4 µM in test [1] (setting [9]) and more than 100 µM in test [4].

Take `COc1cccc2c(Nc3c(F)cc(F)cc3F)c(C#N)cnc12` [Example 280, 8-Methoxy-4-(2,4,6-trifluoro-phenylamino)-quinoline-3-carbonitrile]: the IC50 was more than 91.1 µM in test [1] (setting [9]) and more than 100 µM in test [4].

As for `COc1cccc2c(Nc3cccc(N(C)C)c3)c(C#N)cnc12` [Example 277, 4-(3-Dimethylamino-phenylamino)-8-methoxy-quinoline-3-carbonitrile], the IC50 in test [1] (setting [9]) is more than 94.2 µM; in test [4], more than 100 µM.

Turning to `COc1cccc2c(Nc3ccc(Cl)cc3F)c(C#N)cnc12` [Example 275, 4-(4-Chloro-2-fluoro-phenylamino)-8-methoxy-quinoline-3-carbonitrile], the IC50 in test [1] (setting [9]) was more than 91.5 µM; in test [4] it was more than 100 µM.

`COc1cc2c(Nc3ccc(Cl)cc3F)c(C#N)cnc2c(OC)c1OC` [Example 234, 4-(4-Chloro-2-fluoro-phenylamino)-6,7,8-trimethoxy-quinoline-3-carbonitrile]: the values for the IC50 in test [1] (setting [9]) and in test [4] were more than 77.4 µM and more than 100 µM, respectively.

Take `CCOc1cc2c(Nc3ccc(C)c(O)c3)c(C#N)cnc2cc1OC` [Example 97, 6-Ethoxy-4-(3-hydroxy-4-methylphenylamino)-7-methoxyquinoline-3-carbonitrile]: in test [1] (setting [9]), the IC50 is 0.286 µM.

In test [1], `COc1cc2ncc(C#N)c(Nc3ccc(C)c(O)c3)c2cc1OCCCN1CCOCC1` [Example 128] showed an IC50 of 17.8 µM.

Take `COc1cc2ncc(C#N)c(Nc3cc(Cl)ccc3O)c2cc1OC` [Example 290, 4-(5-Chloro-2-hydroxy-phenylamino)-6,7-dimethoxy-quinoline-3-carbonitrile]: the IC50 in test [1] (setting [9]) was 28.1 µM; in test [4] it was 3 µM.

For `COc1ccc(OC)c2c(Nc3ccc(C)c(O)c3)c(C#N)cnc12` [Example 239, 4-(3-Hydroxy-4-methyl-phenylamino)-5,8-dimethoxy-quinoline-3-carbonitrile], the half-inhibitory concentration (IC50) was more than 89.5 µM in test [1] (setting [9]) and more than 100 µM in test [4].

As to `COc1ccc(OC)c2c(Nc3cccc(Br)c3)c(C#N)cnc12` [Example 240, 4-(3-Bromo-phenylamino)-5.8-dimethoxy-quinoline-3-carbonitrile], the IC50 in test [1] (setting [9]) was more than 78.1 µM; in test [4], 10 µM.

Consider `COc1cc2ncc(C#N)c(Nc3cc(Br)c(O)c(Br)c3)c2cc1OC` [Example 291, 4-(3,5-Dibromo-4-hydroxy-phenylamino)-6,7-dimethoxy-quinoline-3-carbonitrile], for which the IC50 in test [1] (setting [9]) is 20.9 µM; in test [4], more than 100 µM.

On to `COc1ccc(OC)c2c(Nc3cccc(N(C)C)c3)c(C#N)cnc12` [Example 242, 4-(3-Dimethylamino-phenylamino)-5,8-dimethoxy-quinoline-3-carbonitrile], for which the IC50 in test [1] (setting [9]) is more than 86.1 µM; in test [4], 10 µM.

For the compound `COc1ccc(OC)c2c(Nc3cc(O)c(Cl)cc3F)c(C#N)cnc12` [Example 243, 4-(4-Chloro-2-fluoro-5-hydroxy-phenylamino)-5,8-dimethoxy-quinoline-3-carbonitrile], the half-maximal inhibitory concentration (IC50) was more than 80.3 µM in test [1] (setting [9]) and more than 100 µM in test [4].

Consider `COc1cccc2c(Nc3ccc(Br)c(O)c3)c(C#N)cnc12` [Example 278, 4-(4-Bromo-3-hydroxy-phenylamino)-8-methoxy-quinoline-3-carbonitrile], for which the results for the IC50 in test [1] (setting [9]) and in test [4] were more than 81 µM and more than 100 µM, respectively.

In the case of `N#Cc1cnc2ccc(NC(=O)C#CCO)cc2c1Nc1cccc(Br)c1` [Example 332], the IC50 in test [6] turned out to be 0.0009 µM; in test [2] (setting [11]) it was 0.44 µg/mL (≈ 1.04 µM); in test [7], 54.9 µg/mL (≈ 130 µM); in test [8], 0.51 µg/mL (≈ 1.21 µM); in test [5], 0.6 µg/mL (≈ 1.42 µM); in test [3] (setting [12]) it was 0.08 µg/mL (≈ 0.19 µM). In addition, the IC50 in test [4] is 25 µM and < 50 µM.

The IC50 is the concentration at which inhibition is half-maximal.

The record behind these values is patent EP0973746B1, “SUBSTITUTED 3-CYANO QUINOLINES” (Wyeth Holdings Corporation, priority 1997, dated 1998).
